Laboratory results as given in patent US10059701B2 (Merck Patent GmbH, priority 2015, dated 2018).

Assays:
[1] = biological target: T1, IRAK4 (Homo sapiens, UniProt Q9NWZ3); assay: IRAK4 enzymatic assay (ADP-Glo luminescence); assay type: biochemical; settings: purified human recombinant His-TEV-IRAK4 (1-460), ATP 2 μM
T1 construct: His-TEV-IRAK4 (1-460); His (N); TEV cleavage site (N)
T1 sequence (Q9NWZ3 1-460): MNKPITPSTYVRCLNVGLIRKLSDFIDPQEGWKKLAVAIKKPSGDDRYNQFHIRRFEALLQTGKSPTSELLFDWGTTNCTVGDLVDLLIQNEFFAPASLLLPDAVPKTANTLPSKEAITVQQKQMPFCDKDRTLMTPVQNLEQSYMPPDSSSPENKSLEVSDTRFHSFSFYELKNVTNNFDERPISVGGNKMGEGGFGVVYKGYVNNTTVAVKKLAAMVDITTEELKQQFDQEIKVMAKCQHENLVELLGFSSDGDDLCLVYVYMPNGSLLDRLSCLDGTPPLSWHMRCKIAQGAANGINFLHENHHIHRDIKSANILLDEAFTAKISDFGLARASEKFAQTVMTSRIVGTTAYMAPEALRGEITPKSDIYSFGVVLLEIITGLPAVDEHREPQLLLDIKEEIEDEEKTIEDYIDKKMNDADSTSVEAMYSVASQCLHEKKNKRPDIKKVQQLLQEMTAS
In short: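 ADP-Glo luminescence read-out after a 2 h RT kinase reaction with 2 μM ATP and 300 nM biotinylated STK1 peptide. Enzyme (His-TEV-IRAK4 1-460, 0.3 μg/ml) first incubated 15 min with serially diluted compounds (10 μM–0.5 nM) in 50 mM Hepes pH 7.0, 10 mM MgCl2, 5 mM MnCl2.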

[2] = biological target: T2, IRAK1 (Homo sapiens, UniProt P51617); assay: IRAK1 enzymatic assay (ADP-Glo luminescence); assay type: biochemical; settings: purified human recombinant His-TEV-IRAK1 (194-712)
T2 construct: His-TEV-IRAK1 (194-712); His (N); TEV cleavage site (N)
T2 sequence (P51617 194-712): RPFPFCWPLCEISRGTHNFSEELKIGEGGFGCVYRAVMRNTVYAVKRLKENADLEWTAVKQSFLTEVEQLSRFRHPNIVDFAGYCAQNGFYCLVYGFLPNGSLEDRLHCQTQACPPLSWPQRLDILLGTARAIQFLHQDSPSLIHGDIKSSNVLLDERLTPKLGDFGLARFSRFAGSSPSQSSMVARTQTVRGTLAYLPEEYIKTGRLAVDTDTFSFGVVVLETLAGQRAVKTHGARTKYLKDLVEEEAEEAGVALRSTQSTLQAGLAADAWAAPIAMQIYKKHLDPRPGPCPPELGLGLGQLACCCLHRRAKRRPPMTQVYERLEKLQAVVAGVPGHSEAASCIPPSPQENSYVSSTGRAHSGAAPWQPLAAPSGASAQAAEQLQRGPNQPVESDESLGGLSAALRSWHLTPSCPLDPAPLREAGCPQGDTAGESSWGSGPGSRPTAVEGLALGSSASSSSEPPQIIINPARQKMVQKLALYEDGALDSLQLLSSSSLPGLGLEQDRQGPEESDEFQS
In short: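 Luminescent ADP-Glo read-out of ATP turnover by purified His-TEV-IRAK1 (194-712) at 0.3 μg/ml after a 2-hour RT reaction. Compounds, serially diluted from 10 μM to 0.5 nM, were preincubated with enzyme 15 minutes in Hepes pH 7.0 buffer with MgCl2, DTT, EGTA and Triton X-100.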

IC50 [1]	IC50 [2]	Structure (SMILES)
≤ 100 nM	≤ 100 nM	CC1(C)CCOC(=O)N1c1ccc2c(c1)[nH]/c(=N\C(=O)c1cccc(C(F)F)c1)n2CCCO [Example 218, (E)-3-(difluoromethyl)-N-(5-(4,4-dimethyl-2-oxo-1,3-oxazinan-3-yl)-1-(3-hydroxypropyl)-1H-benzo[d]imidazol-2(3H)-ylidene)benzamide]
≤ 100 nM	100 to 1000 nM	O=C(/N=c1\[nH]c2cc(N3CCOCC3=O)ccc2n1CCCO)c1cccc(-c2ccn(CC(F)(F)F)c(=O)c2)c1 [Compound 163, (E)-N-(1-(3-hydroxypropyl)-5-(3-oxomorpholino)-1H-benzo[d]imidazol-2(3H)-ylidene)-3-(2-oxo-1-(2,2,2-trifluoroethyl)-1,2-dihydropyridin-4-yl)benzamide]
≤ 100 nM	100 to 1000 nM	O=C(/N=c1\[nH]c2cc(N3CCOCC3=O)ccc2n1[C@H]1CCCC[C@@H]1CO)c1cccc(C(F)F)c1 (racemic) [Compound 119, rac-(E)-3-(difluoromethyl)-N-(1-((1S,2S)-2-(hydroxymethyl)cyclohexyl)-5-(3-oxomorpholino)-1H-benzo[d]imidazol-2(3H)-ylidene)benzamide]
100 to 1000 nM	> 1000 nM	O=C(/N=c1\[nH]c2cc(N3CCOCC3=O)ccc2n1C1(CCO)CCCCC1)c1cccc(C(F)F)c1 [Compound 115, (E)-3-(difluoromethyl)-N-(1-(1-(2-hydroxyethyl)cyclohexyl)-5-(3-oxomorpholino)-1H-benzo[d]imidazol-2(3H)-ylidene)benzamide]
≤ 100 nM	≤ 100 nM	C[C@H](CCO)n1/c(=N/C(=O)c2cccc(C(F)F)c2)[nH]c2cc(N3CCOCC3=O)ccc21 [Compound 242, (R,E)-3-(difluoromethyl)-N-(1-(4-hydroxybutan-2-yl)-5-(3-oxomorpholino)-1H-benzo[d]imidazol-2(3H)-ylidene)benzamide]
≤ 100 nM	100 to 1000 nM	COc1cc2c(cc1N1CCOCC1=O)[nH]/c(=N\C(=O)c1cccc(CO)c1)n2CCCO [Compound 64, (E)-3-(hydroxymethyl)-N-(1-(3-hydroxypropyl)-6-methoxy-5-(3-oxomorpholino)-1H-benzo[d]imidazol-2(3H)-ylidene)benzamide]
≤ 100 nM	> 1000 nM	O=C(O)CCCn1/c(=N/C(=O)c2cccc(C(F)F)c2)[nH]c2cc(N3CCCOC3=O)ccc21 [Compound 169, (E)-4-(2-((3-(difluoromethyl)benzoyl)imino)-5-(2-oxo-1,3-oxazinan-3-yl)-2,3-dihydro-1H-benzo[d]imidazol-1-yl)butanoic acid]
≤ 100 nM	100 to 1000 nM	CC(F)(F)c1cccc(C(=O)/N=c2\[nH]c3cc(N4CCOCC4=O)ccc3n2CCCO)c1 [Compound 103, (E)-3-(1,1-difluoroethyl)-N-(1-(3-hydroxypropyl)-5-(3-oxomorpholino)-1H-benzo[d]imidazol-2(3H)-ylidene)benzamide]
100 to 1000 nM	> 1000 nM	CSCCCCn1/c(=N/C(=O)c2cccc(C(F)F)c2)[nH]c2cc(N3CCOCC3=O)ccc21 [Compound 89, (E)-3-(difluoromethyl)-N-(1-(4-(methylthio)butyl)-5-(3-oxomorpholino)-1H-benzo[d]imidazol-2(3H)-ylidene)benzamide]
≤ 100 nM	100 to 1000 nM	O=C(/N=c1\[nH]c2cc(N3CCCOC3=O)ccc2n1CC1CCCOC1)c1cccc(C(F)(F)F)c1 (stereo not shown) [Compound 180, (E)-N-(5-(2-oxo-1,3-oxazinan-3-yl)-1-((tetrahydro-2H-pyran-3-yl)methyl)-1H-benzo[d]imidazol-2(3H)-ylidene)-3-(trifluoromethyl)benzamide]
≤ 100 nM	≤ 100 nM	[2H]C([2H])([2H])Oc1cc2c(cc1N1CCCOC1=O)[nH]/c(=N\C(=O)c1cccc(C(F)(F)F)c1)n2CCCO [Example 204, (E)-N-(1-(3-hydroxypropyl)-6-(trideuteromethoxy)-5-(2-oxo-1,3-oxazinan-3-yl)-1H-benzo[d]imidazol-2(3H)-ylidene)-3-(trifluoromethyl)benzamide]
